Results from PubChem BioAssay AID212 (DTP/NCI, 2004).
Where “and” joins values, the source holds several entries; their conditions need not be identical. Identical values can stand only once. Records with an inconclusive call do not appear.

Test system: BDF1 mice, colon carcinoma 38 sc, T/C %
Test: NCI In Vivo Anticancer Drug Screen. Data for tumor model Colon Carcinoma 38 (subcutaneous) in B6D2F1 (BDF1) mice
Conditions: endpoint: median tumor weight (est.), higher = larger tumour
How it was run: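 Compound antitumor activity was assessed in mice carrying transplantable tumors. Survival or tumor size was recorded, and each value is the treated-group measurement divided by that of the vehicle-treated control group.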

[1] = dose: 12.5 mg/kg/injection, schedule: Q07DX002 (ip), vehicle: saline
[2] = dose: 12.5 mg/kg/injection, schedule: Q07DX003 (ip), vehicle: saline
[3] = dose: 25.0 mg/kg/injection, schedule: Q07DX003 (ip), vehicle: saline
[4] = dose: 50.0 mg/kg/injection, schedule: Q07DX003 (ip), vehicle: saline
[5] = dose: 100.0 mg/kg/injection, schedule: Q07DX003 (ip), vehicle: saline
[6] = dose: 200.0 mg/kg/injection, schedule: Q07DX003 (ip), vehicle: saline
[7] = dose: 400.0 mg/kg/injection, schedule: Q07DX003 (ip), vehicle: saline
[8] = dose: 25.0 mg/kg/injection, schedule: Q07DX002 (ip), vehicle: saline
[9] = dose: 50.0 mg/kg/injection, schedule: Q07DX002 (ip), vehicle: saline
[10] = dose: 12.5 mg/kg/injection, schedule: Q07DX002 (ip), vehicle: Klucel (hydroxypropylcellulose) (HPC)
[11] = dose: 25.0 mg/kg/injection, schedule: Q07DX002 (ip), vehicle: Klucel (hydroxypropylcellulose) (HPC)
[12] = dose: 50.0 mg/kg/injection, schedule: Q07DX002 (ip), vehicle: Klucel (hydroxypropylcellulose) (HPC)
[13] = dose: 25.0 mg/kg/injection, schedule: Q07DX002 (ip), vehicle: saline with Tween-80
[14] = dose: 50.0 mg/kg/injection, schedule: Q07DX002 (ip), vehicle: saline with Tween-80
[15] = dose: 100.0 mg/kg/injection, schedule: Q07DX002 (ip), vehicle: saline with Tween-80
[16] = dose: 200.0 mg/kg/injection, schedule: Q07DX002 (ip), vehicle: saline with Tween-80
[17] = dose: 400.0 mg/kg/injection, schedule: Q07DX002 (ip), vehicle: saline with Tween-80
[18] = dose: 12.5 mg/kg/injection, schedule: Q07DX002 (ip), vehicle: saline with Tween-80
[19] = dose: 100.0 mg/kg/injection, schedule: Q07DX002 (ip), vehicle: Klucel (hydroxypropylcellulose) (HPC)
[20] = dose: 200.0 mg/kg/injection, schedule: Q07DX002 (ip), vehicle: Klucel (hydroxypropylcellulose) (HPC)

## ClCC[N+]12CC[N+](CCCl)(CC1)C2
[1]
  T/C: 115 % of control and 123 % of control
[2]
  T/C: 56 % of control
dose: 12.5 mg/kg/injection, schedule: Q07DX003 (ip), vehicle: water
  T/C: 84 % of control
[3]
  T/C: 65 % of control
dose: 25.0 mg/kg/injection, schedule: Q07DX003 (ip), vehicle: water
  T/C: 78 % of control
[4]
  T/C: 72 % of control
dose: 50.0 mg/kg/injection, schedule: Q07DX003 (ip), vehicle: water
  T/C: 44 % of control
[5]
  T/C: 123 % of control
dose: 100.0 mg/kg/injection, schedule: Q07DX003 (ip), vehicle: water
  T/C: 45 % of control
[6]
  T/C: 70 % of control
dose: 400.0 mg/kg/injection, schedule: Q07DX002 (ip), vehicle: saline
  T/C: 47 % of control and 52 % of control
[7]
  T/C: 115 % of control

## NC(=O)C#CC(N)=O
dose: 0.12 mg/kg/injection, schedule: Q07DX002 (ip), vehicle: Klucel (hydroxypropylcellulose) (HPC)
  T/C: 88 % of control
dose: 0.23 mg/kg/injection, schedule: Q07DX002 (ip), vehicle: Klucel (hydroxypropylcellulose) (HPC)
  T/C: 97 % of control
dose: 0.45 mg/kg/injection, schedule: Q07DX002 (ip), vehicle: Klucel (hydroxypropylcellulose) (HPC)
  T/C: 85 % of control
dose: 0.9 mg/kg/injection, schedule: Q07DX002 (ip), vehicle: Klucel (hydroxypropylcellulose) (HPC)
  T/C: 91 % of control

## N=C(N)Sc1cc(O)ccc1O
[2]
  T/C: 88 % of control
[3]
  T/C: 66 % of control
[4]
  T/C: 77 % of control
[5]
  T/C: 103 % of control
[6]
  T/C: 55 % of control

## c1cc2n(n1)CCN2
dose: 6.25 mg/kg/injection, schedule: Q07DX002 (ip), vehicle: saline
  T/C: 76 % of control
[2]
  T/C: 110 % of control
dose: 25.0 mg/kg/injection, schedule: Q01DX005 (ip), vehicle: saline
  T/C: 86 % of control
dose: 25.0 mg/kg/injection, schedule: Q04DX003 (ip), vehicle: saline
  T/C: 84 % of control
[8]
  T/C: 94 % of control
[3]
  T/C: 92 % of control
dose: 50.0 mg/kg/injection, schedule: Q01DX005 (ip), vehicle: saline
  T/C: 36 % of control
[9]
  T/C: 166 % of control
[4]
  T/C: 74 % of control
dose: 100.0 mg/kg/injection, schedule: Q01DX005 (ip), vehicle: saline
  T/C: 44 % of control
dose: 100.0 mg/kg/injection, schedule: Q04DX003 (ip), vehicle: saline
  T/C: 42 % of control
[5]
  T/C: 65 % of control
dose: 200.0 mg/kg/injection, schedule: Q01DX005 (ip), vehicle: saline
  T/C: 47 % of control
dose: 200.0 mg/kg/injection, schedule: Q04DX003 (ip), vehicle: saline
  T/C: 97 % of control
[6]
  T/C: 66 % of control
dose: 400.0 mg/kg/injection, schedule: Q04DX003 (ip), vehicle: saline
  T/C: 75 % of control
[7]
  T/C: 56 % of control

## N=C(N)SCc1c2ccccc2c(CSC(=N)N)c2ccccc12
dose: 6.25 mg/kg/injection, schedule: Q07DX002 (ip), vehicle: suspension in saline
  T/C: 63 % of control
[1]
  T/C: 93 % of control and 100 % of control
dose: 12.5 mg/kg/injection, schedule: Q07DX002 (ip), vehicle: suspension in saline
  T/C: 92 % of control
dose: 25.0 mg/kg/injection, schedule: Q07DX002 (ip), vehicle: suspension in saline
  T/C: 83 % of control
[9]
  T/C: 71 % of control and 89 % of control
dose: 50.0 mg/kg/injection, schedule: Q07DX002 (ip), vehicle: suspension in saline
  T/C: 64 % of control
dose: 100.0 mg/kg/injection, schedule: Q07DX002 (ip), vehicle: suspension in saline
  T/C: 115 % of control
dose: 200.0 mg/kg/injection, schedule: Q07DX002 (ip), vehicle: suspension in saline
  T/C: 97 % of control

## CN(C)c1ncnc2c1ncn2C1OC(CO)C(N)C1O (stereo not given)
[1]
  T/C: 110 % of control
[8]
  T/C: 85 % of control
[9]
  T/C: 105 % of control
dose: 100.0 mg/kg/injection, schedule: Q07DX002 (ip), vehicle: saline
  T/C: 106 % of control
dose: 200.0 mg/kg/injection, schedule: Q07DX002 (ip), vehicle: saline
  T/C: 63 % of control

## [CH3][Sn]([CH3])([Cl])[S]CCN
[1]
  T/C: 71 % of control
[8]
  T/C: 47 % of control
[9]
  T/C: 90 % of control

## O=NN(CCCl)C(=O)Oc1ccc(OC(=O)N(CCCl)N=O)cc1
dose: 6.25 mg/kg/injection, schedule: Q07DX002 (ip), vehicle: Klucel (hydroxypropylcellulose) (HPC)
  T/C: 75 % of control
[10]
  T/C: 72 % of control
[11]
  T/C: 85 % of control
[12]
  T/C: 54 % of control

## CC[PH+](CC)CC[S-].CC[PH+](CC)CC[S-].[Au+].[Au+]
dose: 5.0 mg/kg/injection, schedule: Q07DX002 (ip), vehicle: Klucel (hydroxypropylcellulose) (HPC)
  T/C: 67 % of control
dose: 10.0 mg/kg/injection, schedule: Q07DX002 (ip), vehicle: Klucel (hydroxypropylcellulose) (HPC)
  T/C: 89 % of control
dose: 20.0 mg/kg/injection, schedule: Q07DX002 (ip), vehicle: Klucel (hydroxypropylcellulose) (HPC)
  T/C: 78 % of control
dose: 40.0 mg/kg/injection, schedule: Q07DX002 (ip), vehicle: Klucel (hydroxypropylcellulose) (HPC)
  T/C: 57 % of control

## CCCCOC(=O)/C=C(\Br)C(=O)OCCCC
[13]
  T/C: 76 % of control and 98 % of control
[14]
  T/C: 71 % of control and 85 % of control
[15]
  T/C: 84 % of control and 91 % of control
[16]
  T/C: 81 % of control and 85 % of control
[17]
  T/C: 69 % of control

## COCCCNC1=C(C#N)C(=O)NC(c2cccc([N+](=O)[O-])c2)S1 (stereo not given)
[18]
  T/C: 97 % of control
[13]
  T/C: 95 % of control
[14]
  T/C: 108 % of control

## Cc1cc(N(CCOS(C)(=O)=O)CCOS(C)(=O)=O)ccc1C=Nc1ccc(-c2nc(Cc3ccccc3)sc2C)cc1
[10]
  T/C: 112 % of control and 91 % of control
[11]
  T/C: 100 % of control and 102 % of control
[12]
  T/C: 112 % of control and 98 % of control
[19]
  T/C: 63 % of control and 76 % of control
[20]
  T/C: 18 % of control and 30 % of control

## COC(=O)[C@@]12OC[C@]34[C@H]([C@@H](O)[C@@H]1O)[C@@]1(C)CC(=O)C(O)=C(C)[C@@H]1C[C@H]3OC(=O)[C@H](OC(=O)/C=C(\C)C(C)C)[C@@H]24
dose: 0.25 mg/kg/injection, schedule: Q07DX003 (ip), vehicle: other
  T/C: 72 % of control
dose: 0.5 mg/kg/injection, schedule: Q07DX003 (ip), vehicle: other
  T/C: 98 % of control

## CCN(CC)CCNC(=O)Cc1cccc2c(=O)cc(-c3ccccc3)oc12
[19]
  T/C: 101 % of control
[20]
  T/C: 96 % of control
dose: 400.0 mg/kg/injection, schedule: Q07DX002 (ip), vehicle: Klucel (hydroxypropylcellulose) (HPC)
  T/C: 68 % of control

## Cc1c2cc(Cl)c3ccccc3c2c[n+]2ccccc12
[18]
  T/C: 94 % of control and 102 % of control
[13]
  T/C: 116 % of control
[14]
  T/C: 108 % of control and 111 % of control
[15]
  T/C: 88 % of control and 98 % of control
[16]
  T/C: 99 % of control
[17]
  T/C: 120 % of control

## NS(=O)(=O)c1cc2c(cc1Cl)NC=NS2(=O)=O
dose: 75.0 mg/kg/injection, schedule: Q07DX002 (ip), vehicle: Klucel (hydroxypropylcellulose) (HPC)
  T/C: 120 % of control
dose: 150.0 mg/kg/injection, schedule: Q07DX002 (ip), vehicle: Klucel (hydroxypropylcellulose) (HPC)
  T/C: 113 % of control
dose: 300.0 mg/kg/injection, schedule: Q07DX002 (ip), vehicle: Klucel (hydroxypropylcellulose) (HPC)
  T/C: 90 % of control
dose: 1200.0 mg/kg/injection, schedule: Q07DX002 (ip), vehicle: Klucel (hydroxypropylcellulose) (HPC)
  T/C: 60 % of control
